{"source": "patent US11077126B2", "about": "(priority 2017, dated 2021)", "key": {"[1]": {"tested_on": "transplanted tumor of human breast cancer MCF-7 cells", "experiment": "Human breast cancer (MCF-7) in nude mice model", "conditions": "MCF-7 nude mice; 30 mg/kg i.g. 30 d", "procedure": "(§1) Then cell concentration was adjusted to 1×10^7/ml with matrigel, and then each nude mouse was inoculated subcutaneously with 0.2 ml of cells at its right armpit and recorded as the first day of inoculation. […] Each group was continuously administered intragastrically for 30 days with a dose of 20 ml/kg. The mice were sacrificed the next day after drug withdrawal and the indicators were tested. The long diameter and short diameter of the tumor, and the body weight of each mouse were recorded every 3 days from drug administration to nude mouse sacrifice.\n(§2) The body weight of the nude mice and the long diameter (a) and short diameter (b) of the transplanted tumor were measured every 3 days, and the tumor volume (v), relative tumor volume (RTV) and relative tumor proliferation rate (T/C) are calculated respectively according to the following formulas, wherein V=a×b^2/2; RTV=V/V0 (V0 is the tumor volume before administration, V is the tumor volume before sacrifice), and T/C (%)=treatment group RTV/model control group RTV×100%.\n(§3) Each mouse was weighed and sacrificed. After the tumor was completely stripped off from the body of the mouse, the non-tumor tissues such as blood stains and fat were removed to weigh the tumor and calculate the tumor growth inhibition rate. The average tumor weight of each group of mice is used as an indicator of efficacy. Tumor growth inhibition rate (%)=(1−the average tumor weight of the treatment group/the average tumor weight of the model group)×100%."}, "[2]": {"tested_on": "transplanted tumor of human lymphoma U937 cells", "experiment": "Human lymphoma in nude mice model", "conditions": "30 mg/kg i.g. 30 d", "procedure": "as §1, with “U937 cells in a logarithmic growth phase were taken and subjected to a trypan blue exclusion experiment showing that the cell viability was more than 95%, then the cells were subjected to trypsinization, centrifugation, and supernatant removal. Then” for “Then”\nas §2, §3"}, "[3]": {"tested_on": "transplanted tumor of human hepatocarcinoma HepG-2 cells", "experiment": "Human hepatocarcinoma in nude mice model", "conditions": "HepG-2 nude mice; 30 mg/kg i.g. 30 d", "procedure": "as §1, §2, §3"}, "[4]": {"tested_on": "transplanted tumor of mouse H22 liver cancer", "experiment": "Inhibition of transplanted tumor of mouse H22 liver cancer", "procedure": "The H22 cell strains cryopreserved in liquid nitrogen were resuscitated in Kunming mice. After 3 generations, the ascites of Kunming mice were taken and placed in a 50 ml centrifuge tube in which 10 ml of 0.9% normal saline was added, and then centrifuging was performed at 1000 rpm for 5 min at room temperature, and the obtained supernatant was removed. Then 10 ml of 0.9% normal saline was added to the tube to blow and mix well, and then the mixture was diluted to 5×10^6 live cells/ml with normal saline after counting. The tube was stored in ice water, and 75% ethanol was used to disinfect the skin under the right armpits of the mice. Each Kunming mouse was soon inoculated subcutaneously with 0.2 ml of the cells at the armpit of the right forelimb.\nIn the H22 liver cancer model, the mice inoculated with the tumor were randomly divided into groups with 10 mice in each group on the next day of inoculation. […] Each group was continuously administered intragastrically for 7 days with a dose of 20 ml/kg.\nThe tumor-bearing mice were weighed and sacrificed the next day after the last administration. The subcutaneous tumors were dissected and weighed. The average tumor weight of each group is calculated, and the tumor inhibition rate is calculated. Tumor inhibition rate=(1−T/C)×100%\nT: average tumor weight of the drug-administered group; C: average tumor weight of the blank control group."}, "[5]": {"tested_on": "spleen of A549 lung cancer tumor-bearing mice", "format": "in vivo", "procedure": "(§4) After the tumor-bearing mice are sacrificed, the spleen and thymus are weighed, and the spleen index and thymus index are calculated."}, "[6]": {"tested_on": "thymus and spleen of H22 liver cancer tumor-bearing mice", "format": "in vivo", "procedure": "as §4"}, "[7]": {"conditions": "H22 tumor-bearing mice, cyclophosphamide, P<0.01"}}, "note": "Marks after values point to notes of the source that are not given here.", "data": [{"smiles": "O=P1(N(CCCl)CCCl)NCCCO1", "note": "(stereo not drawn) [Cyclophosphamide]", "values": [{"measurement": "Body Weight (g)(d1)", "setting": "[1]", "result": "21.93 ± 0.89", "unit": "g"}, {"measurement": "Body Weight (g)(d30)", "setting": "[1]", "result": "19.79 ± 1.47", "unit": "g"}, {"measurement": "Inhibition Rate (%)", "setting": "[1]", "result": 62.3, "unit": "%"}, {"measurement": "Relative Tumor Proliferation Rate(T/C)", "setting": "[1]", "result": 30.58, "unit": "%"}, {"measurement": "Relative Tumor Volume (RTV)", "setting": "[1]", "result": "5.00 ± 1.27"}, {"measurement": "Tumor Volume (mm3) (d1)", "setting": "[1]", "result": "127.68 ± 14.89", "unit": "mm3"}, {"measurement": "Tumor Volume (mm3) (d30)", "setting": "[1]", "result": "638.62 ± 123.11", "unit": "mm3"}, {"measurement": "Tumor Weight", "setting": "[1]", "result": "0.72 ± 0.21", "unit": "g"}, {"measurement": "Body Weight (g)(d1)", "setting": "[2]", "result": "19.79 ± 0.86", "unit": "g"}, {"measurement": "Body Weight (g)(d30)", "setting": "[2]", "result": "18.85 ± 0.62", "unit": "g"}, {"measurement": "Inhibition Rate (%)", "setting": "[2]", "result": 78.40, "unit": "%"}, {"measurement": "Relative Tumor Proliferation Rate(T/C)", "setting": "[2]", "result": 34.30, "unit": "%"}, {"measurement": "Relative Tumor Volume (RTV)", "setting": "[2]", "result": "6.37 ± 0.94"}, {"measurement": "Tumor Volume (mm^3) (d1)", "setting": "[2]", "result": "139.58 ± 11.25", "unit": "mm^3"}, {"measurement": "Tumor Volume (mm^3) (d30)", "setting": "[2]", "result": "889.72 ± 59.73*** mm^3"}, {"measurement": "Tumor Weight", "setting": "[2]", "result": "0.38 ± 0.16", "unit": "g"}, {"measurement": "Body Weight (g)(d1)", "setting": "[3]", "result": "22.67 ± 1.54", "unit": "g"}, {"measurement": "Body Weight (g)(d30)", "setting": "[3]", "result": "21.52 ± 1.99", "unit": "g"}, {"measurement": "Inhibition Rate (%)", "setting": "[3]", "result": 63.48, "unit": "%"}, {"measurement": "Relative Tumor Proliferation Rate(T/C)", "setting": "[3]", "result": 32.55, "unit": "%"}, {"measurement": "Relative Tumor Volume (RTV)", "setting": "[3]", "result": "4.27 ± 0.26"}, {"measurement": "Tumor Volume (mm3) (d1)", "setting": "[3]", "result": "146.12 ± 2.30", "unit": "mm3"}, {"measurement": "Tumor Volume (mm3) (d30)", "setting": "[3]", "result": "623.67 ± 28.44", "unit": "mm3"}, {"measurement": "Tumor Weight", "setting": "[3]", "result": "0.46 ± 0.07", "unit": "g"}, {"measurement": "tumour", "setting": "[4]; 26 mg/kg, positive drug group", "result": "0.53 ± 0.24", "unit": "g"}, {"measurement": "Inhibition Rate (%)", "setting": "[4]; 26 mg/kg, positive drug group, by tumor weight", "result": 47.25, "unit": "%"}, {"measurement": "Body Weight (g)(d1)", "setting": "[4]; 26 mg/kg, positive drug group, d1", "result": "23.50 ± 1.90", "unit": "g"}, {"measurement": "Body Weight (g) (d7)", "setting": "[4]; 26 mg/kg, positive drug group, d7", "result": "25.13 ± 2.69", "unit": "g"}, {"measurement": "weight compared with the normal control group", "setting": "[4]; H22 liver cancer mice, cyclophosphamide 26 mg/kg", "result": "slight decrease in weight"}, {"measurement": "tumor inhibition rate", "setting": "[4]; Kunming mouse H22 liver cancer, cyclophosphamide 26 mg/kg i.g. 7 days", "result": 47.25, "unit": "%"}, {"measurement": "Spleen Index (%)", "setting": "[5]; 26 mg/kg, positive drug group, n = 6", "result": "0.20 ± 0.03", "unit": "%"}, {"measurement": "spleen index compared with the control group", "setting": "[5]; A549 lung cancer tumor-bearing mice, cyclophosphamide, P<0.01", "result": "significantly lower"}, {"measurement": "Spleen Index (%)", "setting": "[6]; 26 mg/kg, positive drug group", "result": "0.38 ± 0.09", "unit": "%"}, {"measurement": "Thymus Index (%)", "setting": "[6]; 26 mg/kg, positive drug group", "result": "0.04 ± 0.02", "unit": "%"}, {"measurement": "spleen index compared with the control group", "setting": "[6]; [7]", "result": "significantly lower"}, {"measurement": "thymus index compared with the control group", "setting": "[6]; [7]", "result": "significantly lower"}]}]}
